Data from publication PMC9372051, “Biological evaluation, molecular modeling and dynamics simulation of phenanthrenes isolated from Bletilla striata as butyrylcholinesterase inhibitors” (Scientific Reports, 2022).
Read-outs that look alike come from different tables or passages of the source.

Legend:
AChE from electric eel = AChE from electric eel (Electrophorus electricus, UniProt O42275); assay: biochemical; settings: read-out: % of inhibition at 25 μg/mL AChE
BChE from equine serum = BChE from equine serum (Equus caballus, UniProt P81908); assay: biochemical; assay type: biochemical; settings: for inhibition at 25 µg/mL: read-out: % of inhibition at 25 μg/mL BChE; for BChE inhibition described in words: structure-activity discussion
Sequence of BChE from equine serum (P81908 whole entry): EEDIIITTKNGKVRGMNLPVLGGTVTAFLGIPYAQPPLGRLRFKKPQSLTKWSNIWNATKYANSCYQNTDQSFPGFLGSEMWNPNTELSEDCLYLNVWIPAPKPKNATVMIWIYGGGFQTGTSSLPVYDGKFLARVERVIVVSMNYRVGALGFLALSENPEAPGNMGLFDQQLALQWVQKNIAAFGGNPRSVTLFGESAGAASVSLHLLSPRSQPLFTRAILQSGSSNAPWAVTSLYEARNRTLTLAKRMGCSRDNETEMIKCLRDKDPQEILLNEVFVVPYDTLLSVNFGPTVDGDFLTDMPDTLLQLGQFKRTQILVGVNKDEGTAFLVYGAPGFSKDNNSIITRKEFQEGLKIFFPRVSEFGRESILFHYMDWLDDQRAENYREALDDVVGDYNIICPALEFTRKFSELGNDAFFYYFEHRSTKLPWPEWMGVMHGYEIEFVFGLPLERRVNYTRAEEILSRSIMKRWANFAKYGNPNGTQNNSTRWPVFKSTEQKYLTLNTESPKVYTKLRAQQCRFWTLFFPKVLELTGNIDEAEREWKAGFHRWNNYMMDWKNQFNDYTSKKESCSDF

BChE = BChE (Equus caballus, UniProt P81908); assay: Kinetic characterization of BChE inhibition (Lineweaver–Burk plots, secondary plots); assay type: biochemical, equine; settings: for Mode of BChE inhibition: Lineweaver–Burk plots; for Ki: estimated by secondary plots of Lineweaver–Burk plots, substrate BTCI
Sequence of BChE (P81908 whole entry): as above
Procedure: […]. Five increasing concentrations of BTCI as a substrate in the presence of three different concentrations of compound were used in the kinetic measurement. The concentrations of the enzyme and DNTB used in the determination are 0.226 U/mL and 3 mM respectively. The inhibition constants (Ki) of the inhibitors were determined by the secondary plots which constructed using the slopes of the Lineweaver–Burk plots.

Sequence of AChE from electric eel (O42275 24-633): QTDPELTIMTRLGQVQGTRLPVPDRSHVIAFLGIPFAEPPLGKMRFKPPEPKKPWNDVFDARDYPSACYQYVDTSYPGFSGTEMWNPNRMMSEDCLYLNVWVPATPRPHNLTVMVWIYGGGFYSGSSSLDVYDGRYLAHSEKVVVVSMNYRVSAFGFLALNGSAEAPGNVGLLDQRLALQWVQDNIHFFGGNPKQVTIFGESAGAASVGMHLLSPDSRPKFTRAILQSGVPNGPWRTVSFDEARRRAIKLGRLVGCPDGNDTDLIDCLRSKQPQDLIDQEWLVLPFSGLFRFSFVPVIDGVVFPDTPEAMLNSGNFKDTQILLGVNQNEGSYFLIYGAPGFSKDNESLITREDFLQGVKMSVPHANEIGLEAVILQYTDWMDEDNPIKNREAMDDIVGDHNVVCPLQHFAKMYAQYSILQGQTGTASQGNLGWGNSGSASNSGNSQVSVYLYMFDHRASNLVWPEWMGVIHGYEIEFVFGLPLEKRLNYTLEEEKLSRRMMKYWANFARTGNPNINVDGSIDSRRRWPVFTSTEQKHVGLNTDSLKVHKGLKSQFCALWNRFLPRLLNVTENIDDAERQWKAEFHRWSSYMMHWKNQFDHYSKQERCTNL

Row | SMILES | inhibition at 25 µg/mL (AChE from electric eel) [%] | Selectivity ratio (BChE from equine serum) | IC50 (BChE from equine serum; mean ± SD of three experiments) [µM] | inhibition at 25 µg/mL (BChE from equine serum) [%] | Mode of BChE inhibition (BChE) | Ki (BChE) [µM] | BChE inhibition described in words (BChE from equine serum) | inhibition at 25 µg/mL (BChE from equine serum; 25 μg/mL final concentration, mean ± SD of three experiments) [%]
1 | COc1ccc2c(ccc3c(Cc4ccc(O)cc4)c(O)cc(OC)c32)c1O [Compound 6, 1-(p-hydroxybenzyl)-4,7-dimethoxyphenanthrene-2,8-diol] | 20.4 ± 4.5 | > 9.5 | 6.4 ± 0.2 | 85.2 ± 2.9 | mixed-type | 14 |  | 
2 | COc1c(Cc2ccc(O)cc2)c(O)cc2c1-c1ccc(O)cc1CC2 [Compound 7, 3-(4-hydroxybenzyl)-4-methoxy-9,10-dihydrophenanthrene-2,7-diol] | 9.6 ± 2.6 | > 2.1 | 34 ± 1.4 | 65.7 ± 0.7 |  |  |  | 
3 | COc1cccc(CCc2cc(O)cc(OC)c2Cc2ccc(O)cc2)c1 [Compound 2, bulbocol] | 16.3 ± 3.8 | > 2.1 | 33.5 ± 3.7 | 67.7 ± 0.3 |  |  |  | 
4 | COc1cc(O)c(Cc2ccc(O)cc2)c2ccc3c(Cc4ccc(O)cc4)c(O)ccc3c12 [Compound 12, 1,8-bis(4-hydroxybenzyl)-4-methoxyphenanthrene-2,7-diol] | 16.1 ± 5 | > 23.1 | 2.3 ± 0.4 | 95.4 ± 0.3 | non-competitive | 6.6 |  | 
5 | COc1cc(O)cc(/C=C\c2cccc(O)c2)c1 [Compound 21, pholidotol D] | 5.2 ± 3.2 |  |  | 29.1 ± 1.3 |  |  |  | 
6 | COc1cc(Oc2c(O)cc(OC)c3c2ccc2cc(O)ccc23)cc2c1-c1ccc(O)cc1CC2 [Compound 16, blestrin C] | 4.9 ± 3.2 | > 4.3 | 12.1 ± 3.4 | 64.3 ± 2.4 |  |  |  | 
7 | COc1cc(O)c(Cc2ccc(O)cc2)c2ccc3cc(O)ccc3c12 [Compound 10, 1-[(4-hydroxyphenyl)methyl]-4-methoxy-2,7-phenanthrenediol] | 19.1 ± 3.8 | > 34.7 | 2.1 ± 0.3 | 96.6 ± 1.2 | non-competitive | 5.4 |  | 
8 | COc1cc(O)c(Cc2ccc(O)cc2)c(CCc2cccc(O)c2)c1 [Compound 4, isoarundinin II] | 0.9 ± 0.8 |  |  | 39.3 ± 2.3 |  |  |  | 
9 | COc1cc(O)c(-c2c(O)cc(OC)c3c2CCc2cc(O)ccc2-3)c2c1-c1ccc(O)cc1CC2 [Compound 22, flavanthrin] | 13.3 ± 2.9 | > 1.2 | 42.2 ± 5.1 | 56.7 ± 2 |  |  | moderate efficacy | 
10 | COc1ccc2c3c1O[C@H]1C[C@@H](O)C=C[C@@]31CCN(C)C2 [Galantamine, reference compound] |  |  |  | 64.2 ± 0.6 |  |  |  | 
11 | COc1c(O)c(Cc2ccc(O)cc2)c2ccc3cc(O)ccc3c2c1OC [Compound 13, bleformin B] | 9.9 ± 4.7 | > 4.0 | 16.7 ± 2.4 | 75.7 ± 1.1 |  |  |  | 
12 | COc1cc(CCc2cccc(O)c2)cc(O)c1Cc1ccc(O)cc1 [Compound 5, 3,3′-dihydroxy-4-(4-hydroxybenzyl)-5-methoxybibenzyl] | 2.6 ± 2.8 |  |  | 22.6 ± 2.1 |  |  |  | 
13 | COc1cc(O)cc2c1-c1ccc(Oc3c(O)cc(OC)c4c3ccc3cc(O)ccc34)cc1CC2 [Compound 14, blestrin D] | 6.8 ± 1.6 | > 6.8 | 8.1 ± 0.5 |  | mixed-type | 10.9 |  | 69 ± 2.5
14 | COc1c(O)cc2ccc3c(Cc4ccc(O)cc4)c(O)ccc3c2c1OC [Compound 8, bleformin A] | 18.5 ± 1.7 | > 13.1 | 5.2 ± 0.4 | 70 ± 1 | mixed-type | 4.7 |  | 
15 | COc1cc(O)c2c(c1Cc1ccc(O)cc1)CCc1cc(O)ccc1-2 [Compound 9, shancidin] | 15.2 ± 3.6 | > 4.3 | 16.7 ± 2 | 72.8 ± 3.4 |  |  |  | 
16 | COc1cc(C2COc3cc(OC)c4c(c3C2O)CCc2cc(O)ccc2-4)ccc1O (stereo not shown) [Compound 17, shanciol F] | 5.5 ± 1.8 |  |  | 21.8 ± 3.1 |  |  |  | 
17 | COc1cc(C2Oc3cc4c(c(OC)c3C2CO)-c2ccc(O)cc2CC4)ccc1O (stereo not shown) [Compound 19, 9-(4′-hydroxy-3′-methoxyphenyl)-10-(hydroxymethyl)-11-methoxy-5,6,9, 10-tetrahydrophenanthro[2,3-b] furan-3-ol] | 3.3 ± 1.8 | > 1.7 | 35.8 ± 9.2 | 61.2 ± 1.3 |  |  |  | 
18 | COc1cc(Oc2c(O)cc(OC)c3c2CCc2cc(O)ccc2-3)cc2c1-c1ccc(O)cc1CC2 [Compound 15, blestrin A] | 8.4 ± 3.1 | > 2.9 | 17.9 ± 4.7 | 64 ± 2.6 |  |  |  | 
19 | COc1cccc(CCc2cc(OC)cc(O)c2Cc2ccc(O)cc2)c1 [Compound 1, gymconopin D] | 48.1 ± 6.3 | > 1.7 | 40.5 ± 5.6 | 66.2 ± 3.4 |  |  |  | 
20 | COc1cc([C@@H]2Oc3cc(OC)c4c(c3[C@H]2Cc2c(O)cc(OC)c3c2CCc2cc(O)ccc2-3)CCc2cc(O)ccc2-4)ccc1O [Compound 20, Bletilol E] | 5.1 ± 4 |  |  | 8 ± 2.4 |  |  | weak inhibition potency | 
21 | COc1c(Cc2ccc(O)cc2)c(O)c(Cc2ccc(O)cc2)c2c1-c1ccc(O)cc1CC2 [Compound 11, 2,7-dihydroxy-1,3-bi(p-hydroxybenzyl)-4-methoxy-9,10-dihydrophenanthrene] | 20.1 ± 3.5 | > 1.2 | 44.6 ± 4.1 | 53.1 ± 1.2 |  |  |  | 
22 | COc1cc([C@@H]2Oc3cc4c(cc3[C@H]2CO)-c2c(cc(O)cc2OC)CC4)ccc1O [Compound 18, bletilol D] | 5.7 ± 2.8 |  |  | 31.6 ± 2.8 |  |  |  | 
23 | COc1cc(O)cc(CCc2cccc(O)c2)c1Cc1ccc(O)cc1 [Compound 3, 3′,5-dihydroxy-2-(4-hydroxybenzyl)-3-methoxybibenzyl] | 5 ± 1.5 |  | 80.3 ± 5.2 | 51.3 ± 2 |  |  |  | 
